The supplement of paper PMC10307832

Experiments:
Experiment in all cases: relative viability (nuclei count vs DMSO), 5 days (fraction); higher = more cells survive
Salubrinal + Palbociclib = compound: O=C(/C=C/c1ccccc1)NC(NC(=S)Nc1cccc2cccnc12)C(Cl)(Cl)Cl [Salubrinal] + CC(=O)c1c(C)c2cnc(Nc3ccc(N4CCNCC4)cn3)nc2n(C2CCCC2)c1=O [Palbociclib] (partner 0.5 µM)
Outline: (§1)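 The day after seeding in 1536-well plates, lung cancer cell lines were treated by pin tool with a single drug, or with a fixed anchor-drug dose together with five library-drug doses (not always all listed) in √10 steps. After 5 days, a combined fix-and-stain solution (final 0.05% Triton X-100, 1% formaldehyde, 1 ug/ml Hoechst) was added. Nuclei counted on 4× images gave relative viability as treated counts over vehicle counts, reported as the median of duplicate plates.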

[1] = compound: Cc1ccc2nc(NCCN)c3ncc(C)n3c2c1 + C[C@]1(O)C[C@@H](c2nc(-c3ccc4ccc(-c5ccccc5)nc4c3)c3c(N)nccn32)C1 [Linsitinib] (partner 1 µM)
Outline: as §1

Salubrinal + Dasatinib = compound: O=C(/C=C/c1ccccc1)NC(NC(=S)Nc1cccc2cccnc12)C(Cl)(Cl)Cl [Salubrinal] + Cc1nc(Nc2ncc(C(=O)Nc3c(C)cccc3Cl)s2)cc(N2CCN(CCO)CC2)n1 [Dasatinib] (partner 0.075 µM)
Outline: as §1

[2] = compound: Cc1ccc2nc(NCCN)c3ncc(C)n3c2c1 + CC(C)C[C@H](NC(=O)[C@H](Cc1ccccc1)NC(=O)c1cnccn1)B(O)O [Bortezomib] (partner 0.002 µM)
Outline: as §1

| Cell Line | relative viability (Salubrinal + Palbociclib; first compound 0.08 µM) | relative viability (Salubrinal + Palbociclib; first compound 0.253 µM) | relative viability (Salubrinal + Palbociclib; first compound 0.8 µM) | relative viability (Salubrinal + Palbociclib; first compound 2.53 µM) | relative viability (Salubrinal + Palbociclib; first compound 8 µM) | relative viability ([1]; first compound 0.04 µM) | relative viability ([1]; first compound 0.1265 µM) | relative viability ([1]; first compound 0.4 µM) | relative viability ([1]; first compound 1.265 µM) | relative viability ([1]; first compound 4 µM) | relative viability (Salubrinal + Dasatinib; first compound 0.08 µM) | relative viability (Salubrinal + Dasatinib; first compound 0.253 µM) | relative viability (Salubrinal + Dasatinib; first compound 0.8 µM) | relative viability (Salubrinal + Dasatinib; first compound 2.53 µM) | relative viability (Salubrinal + Dasatinib; first compound 8 µM) | relative viability ([2]; first compound 0.04 µM) | relative viability ([2]; first compound 0.1265 µM) | relative viability ([2]; first compound 0.4 µM) | relative viability ([2]; first compound 1.265 µM) | relative viability ([2]; first compound 4 µM) |
| --- | --- | --- | --- | --- | --- | --- | --- | --- | --- | --- | --- | --- | --- | --- | --- | --- | --- | --- | --- | --- |
| EPLC-272H | 0.314 | 0.295 | 0.293 | 0.288 | 0.312 | 1.44 | 1.02 | 1.13 | 1.32 | 1.15 | 0.41 | 0.324 | 0.357 | 0.383 | 0.294 | 0.914 | 0.782 | 0.911 | 0.805 | 0.97 |
| H3255 | 0.315 | 0.344 | 0.319 | 0.299 | 0.332 | 0.955 | 0.876 | 0.819 | 0.915 | 0.944 | 0.291 | 0.366 | 0.459 | 0.35 | 0.356 | 0.976 | 0.745 | 0.695 | 0.943 | 0.691 |
| HARA | 0.294 | 0.281 | 0.252 | 0.269 | 0.236 | 1.01 | 0.933 | 0.885 | 0.791 | 0.927 | 0.341 | 0.29 | 0.282 | 0.265 | 0.263 | 1.14 | 1.11 | 1.13 | 1.06 | 1.1 |
| HCC-15 | 0.832 | 0.589 | 0.844 | 0.777 | 0.703 | 0.886 | 0.833 | 0.855 | 0.805 | 0.905 | 0.723 | 0.586 | 0.701 | 0.627 | 0.498 | 1.02 | 1 | 0.864 | 0.975 | 0.783 |
| HCC-78 | 0.462 | 0.403 | 0.488 | 0.464 | 0.539 | 0.539 | 0.537 | 0.496 | 0.491 | 0.448 | 0.404 | 0.343 | 0.688 | 0.361 | 0.363 | 0.52 | 0.424 | 0.365 |  | 0.444 |
| HCC-366 | 0.464 |  | 0.44 | 0.385 | 0.315 | 0.622 | 0.612 | 0.642 | 0.78 | 0.49 | 0.813 | 0.497 | 0.777 | 0.555 | 0.528 | 1.06 | 0.948 | 1.13 | 1.11 | 0.967 |
| HCC-827 | 0.49 | 0.441 | 0.514 | 0.475 | 0.48 | 0.932 | 0.936 | 0.91 | 0.946 | 0.938 | 0.357 | 0.251 | 0.27 | 0.326 | 0.393 | 1.12 | 1.05 | 0.958 | 1.09 | 1.01 |
| HOP-62 | 0.359 | 0.399 | 0.53 | 0.457 | 0.481 | 1.11 | 0.912 | 1.11 | 0.922 | 0.89 | 0.662 | 0.586 | 0.703 | 0.742 | 0.478 | 1.02 | 0.692 | 0.613 | 0.86 | 0.432 |
